Test system: LG0703-F948-PDC complex spheroid viability
Assay: Anticancer human tumor LG0703-F948-PDC patient-derived lung adenocarcinoma cell line growth inhibition [RAS]
Conditions: for IC50: curve of first compound; for viability, T/C: stronger effect = lower value
Source text: RAS pathway inhibitors in Combinations in Complex Spheroids
A high-throughput screen of multi-cell type tumor spheroids was designed to identify active combinations of RAS pathway inhibitors and targeted small molecules. Complex spheroids include a stromal component modeled by human endothelial cells (HUVEC) and fibroblasts modeled by human mesenchymal stem cells (MSCs). The concentration ranges selected for each drug and investigational agent were based upon clinically achievable concentrations if the clinical Cmax of the agent was known.
Compounds. The drugs and investigational agents: abemaciclib (NSC768073), cobimetinib (NSC768068), divarasib (GDC6063, NSC841802), docetaxel (NSC628503), GDC-1971 (RLY-1971, NSC841576), gemcitabine (NSC613327), inavolisib (NSC800729), ipatasertib (NSC767898), KB-0742 (NSC834161), MRTX-1133 (NSC836407), osimertinib (NSC779217), RMC-4630 (NSC839698), RMC-6236 (NSC851965), RMC-6291 (NSC852671), Ro-3306 (NSC812927), sapanisertib (NSC764658), SN-38 (NSC673596), staurosporine (NSC755774), SY5609 (NSC837396), and tovorafenib (DAY101, NSC766906), were obtained from the National Cancer Institute (NCI) Developmental Therapeutics Program Chemical Repository. The FDA-approved anticancer drug set is available from the NCI Developmental Therapeutics Program. […] The stock solutions were prepared in dimethyl sulfoxide (DMSO, Sigma-Aldrich, St. Louis, MO, cat. D2650) at 800-fold the tested concentration and stored at -70 degrees C prior to their use. All drugs and investigational agents were tested over a range starting from a high concentration at or near the clinical Cmax and decreasing in half-log increments. If the clinical Cmax for an agent had not been determined, the highest concentration tested was 10 microM.
Cell Culture. All cells were maintained in an incubator at 37 degrees C and 5% CO2 with 95% humidity. The PDC lines were cultured according to standard operating procedures established by the NCI PDMR. All PDCs were thawed and cultured in Matrigel-coated flasks prepared with a working solution of 1X Ham's F-12 nutrient mix, without supplementation (Invitrogen, Waltham, MA, cat. 11765054), 100 U/mL penicillin-streptomycin (Invitrogen, cat. 15140122), and 2.5% Matrigel (Corning Inc., Corning, NY, cat. 354248) for the first three passages. The 362531-283-R-J2-PDC and 782815-120-R-J1-PDC lines were cultured in 6C/Colon 1B media, which includes advanced DMEM/F-12 (Thermo Fisher Scientific, cat. 12634028), 10 mM HEPES (Thermo Fisher Scientific, cat. 15630080), 1X GlutaMAX supplement (Thermo Fisher Scientific, cat. 35050061), 0.1 mg/mL primocin (InvivoGen, San Diego, CA, cat. ant-pm-2), 10% defined fetal bovine serum, heat inactivated (HyClone Laboratories Inc., Logan, UT, cat. SH30070.03HI), 50% L-WRN conditioned media (ATCC, cat. CRL-3276), 1.25 mM N-Acetyl-L-cysteine (Sigma-Aldrich, cat. A9165), 10 mM nicotinamide (Sigma-Aldrich, cat. N0636), 1X B-27 supplement (Thermo Fisher Scientific, cat. 17504044), 1X N-2 supplement (Thermo Fisher Scientific, cat. 17502048), 50 ng/mL human EGF (Thermo Fisher Scientific, cat. PHG0311), and 10 microM Y-27632 dihydrochloride (Tocris Bioscience, cat. 1254). The K12877-001-R-J1-PDC line was cultured in 6I media, which includes all 6C/Colon 1B media plus 10 ng/mL human FGF-10 (PeproTech, cat. 100-26), 1 ng/mL human FGF-2 (PeproTech, cat. 100-18B), 1 µM prostaglandin E2 (Tocris Bioscience, cat. 2296), […] hydrocortisone (Sigma-Aldrich, cat. H4001), and […] bovine insulin (Sigma-Aldrich, cat. I6634). The K86415-001-R-J1-PDC line was cultured in 6D media, which includes all 6C/Colon 1B media components minus the L-WRN conditioned media. The 485176-168-R4-J1-PDC was cultured in PANC media, which includes all 6C/Colon 1B media plus 100 ng/mL human FGF-10 (PeproTech, cat. 100-26), 500 nM SB-431542 (Selleckchem, cat. S1067), and 10 nM gastrin (Tocris Bioscience, cat. 3006). […]
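Note: spheroids exposed to agents for 7 days.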
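Throughout, for viability, T/C: 100% = DMSO vehicle wells.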

CCC(CC)c1cc(NC2CCC(N)C2)n2nccc2n1 (configuration not stated) + CCn1c(-c2cccnc2C(C)OC)c2c3cc(ccc31)N1CCOC(CC(NC(=O)C(C(C)C)N(C)C(=O)C3(F)CCN(C(=O)C#CC(C)(C)N(C)C)CC3)C(=O)N3CCCC(N3)C(=O)OCC(C)(C)C2)C1
IC50 (second compound 0.000949 µM): 0.964 µM | IC50 (second compound 0.003 µM): 1.04 µM | IC50 (second compound 0.00949 µM): 1.6 µM | IC50 (second compound 0.03 µM): 1.09 µM | IC50 (second compound 0.0949 µM): 0.36 µM | IC50 (second compound 0.3 µM): < 0.0316 µM | viability, T/C (second compound 0.000949 µM, first compound 0.0316 µM): 104% | viability, T/C (second compound 0.000949 µM, first compound 0.1 µM): 89.9% | viability, T/C (second compound 0.000949 µM, first compound 0.316 µM): 79.8% | viability, T/C (second compound 0.000949 µM, first compound 1 µM): 54% | viability, T/C (second compound 0.000949 µM, first compound 3.16 µM): 5.17% | viability, T/C (second compound 0.000949 µM, first compound 10 µM): 0.33% | viability, T/C (second compound 0.003 µM, first compound 0.0316 µM): 104% | viability, T/C (second compound 0.003 µM, first compound 0.1 µM): 96.8% | viability, T/C (second compound 0.003 µM, first compound 0.316 µM): 79.4% | viability, T/C (second compound 0.003 µM, first compound 1 µM): 58.2% | viability, T/C (second compound 0.003 µM, first compound 3.16 µM): 4.18% | viability, T/C (second compound 0.003 µM, first compound 10 µM): 0.26% | viability, T/C (second compound 0.00949 µM, first compound 0.0316 µM): 87.5% | viability, T/C (second compound 0.00949 µM, first compound 0.1 µM): 79.6% | viability, T/C (second compound 0.00949 µM, first compound 0.316 µM): 80.6% | viability, T/C (second compound 0.00949 µM, first compound 1 µM): 81.6% | viability, T/C (second compound 0.00949 µM, first compound 3.16 µM): 4.34% | viability, T/C (second compound 0.00949 µM, first compound 10 µM): 0.8% | viability, T/C (second compound 0.03 µM, first compound 0.0316 µM): 100% | viability, T/C (second compound 0.03 µM, first compound 0.1 µM): 91.1% | viability, T/C (second compound 0.03 µM, first compound 0.316 µM): 77.5% | viability, T/C (second compound 0.03 µM, first compound 1 µM): 58.6% | viability, T/C (second compound 0.03 µM, first compound 3.16 µM): 4.55% | viability, T/C (second compound 0.03 µM, first compound 10 µM): 0.32% | viability, T/C (second compound 0.0949 µM, first compound 0.0316 µM): 85.2% | viability, T/C (second compound 0.0949 µM, first compound 0.1 µM): 65.5% | viability, T/C (second compound 0.0949 µM, first compound 0.316 µM): 53.1% | viability, T/C (second compound 0.0949 µM, first compound 1 µM): 37.2% | viability, T/C (second compound 0.0949 µM, first compound 3.16 µM): 3.64% | viability, T/C (second compound 0.0949 µM, first compound 10 µM): 0.29% | viability, T/C (second compound 0.3 µM, first compound 0.0316 µM): 41.6% | viability, T/C (second compound 0.3 µM, first compound 0.1 µM): 41.2% | viability, T/C (second compound 0.3 µM, first compound 0.316 µM): 27.3% | viability, T/C (second compound 0.3 µM, first compound 1 µM): 22.4% | viability, T/C (second compound 0.3 µM, first compound 3.16 µM): 3.57% | viability, T/C (second compound 0.3 µM, first compound 10 µM): 0.69%
